According to patent US20130245081A1, “Compositions and Methods for Treating Amyotrophic Lateral Sclerosis” (priority 2009, published 2013):
“And” between values parts separate entries of the source, which are not always exact repeats. Identical values can stand only once. Like-named read-outs stand apart in the source and are kept apart here.

System: patients with ALS
[1] = 50 mg, No Riluzole Use, through Week 28
[2] = 50 mg, Riluzole Use, through Week 28
[3] = 50 mg, double-blind treatment period
[4] = 50 mg, through the end of the study
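Note: adverse event data gathered at every clinic visit and phone contact, after first study drug dose, in a blinded trial, counts of affected subjects.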

Question: Which results are given for `CCCN[C@@H]1CCc2nc(N)sc2C1` [dexpramipexole, (6R)-2-amino-4,5,6,7-tetrahydro-6-(propylamino)benzothiazole]?
Answer: subjects with increase from baseline in QTcF >30 msec (50 mg): Four; subjects with decrease in weight >7% from baseline (50 mg and 300 mg groups together, double-blind period): 30 subjects; AE: Anxiety [1]: 1 (4%) N (%); AE: Constipation [1]: 4 (17%) N (%); AE: Depression [1]: 4 (17%) N (%); AE: Dry mouth [1]: 0 N (%); AE: Dysarthria [1]: 1 (4%) N (%); AE: Dyspnoea [1]: 3 (13%) N (%); AE: Fall [1]: 6 (26%) N (%); AE: Headache [1]: 1 (4%) N (%); AE: Muscular weakness [1]: 7 (30%) N (%); AE: Nausea [1]: 2 (9%) N (%); AE: Oedema peripheral [1]: 4 (17%) N (%); AE: Pharyngolaryngeal pain [1]: 1 (4%) N (%); AE: Sinusitis [1]: 1 (4%) N (%); AE: Upper respiratory tract infection [1]: 2 (9%) N (%); AE: Urinary tract infection [1]: 1 (4%) N (%); AE: Anxiety [2]: 1 (4%) N (%); AE: Constipation [2]: 4 (16%) N (%); AE: Depression [2]: 2 (8%) N (%); AE: Dry mouth [2]: 1 (4%) N (%); AE: Dysarthria [2]: 3 (12%) N (%); AE: Dyspnoea [2]: 2 (8%) N (%); AE: Fall [2]: 5 (20%) N (%); AE: Headache [2]: 2 (8%) N (%); AE: Muscular weakness [2]: 6 (24%) N (%); AE: Nausea [2]: 2 (8%) N (%); AE: Oedema peripheral [2]: 3 (12%) N (%); AE: Pharyngolaryngeal pain [2]: 3 (12%) N (%); AE: Sinusitis [2]: 1 (4%) N (%); AE: Upper respiratory tract infection [2]: 3 (12%) N (%); AE: Urinary tract infection [2]: 2 (8%) N (%); incidence of ECGs with QTcB increased >30 msec from baseline (50 mg, any post-baseline visit): 17%; subjects with QTcF interval >450 msec (50 mg, any post-baseline visit): Two; AEs related to ALS as assessed by the Investigator [3]: 85%; subjects with prolonged QTcB [3]: 6 subjects; subjects with serum chemistry abnormalities of potential clinical significance [3]: 4 subjects; ALS-related TEAE: Affect liability (50 mg, through Week 28): 2 (4%) N (%); ALS-related TEAE: Arthralgia (50 mg, through Week 28): 1 (2%) N (%); ALS-related TEAE: Choking (50 mg, through Week 28): 2 (4%) N (%); ALS-related TEAE: Constipation (50 mg, through Week 28): 4 (8%) N (%); ALS-related TEAE: Contusion (50 mg, through Week 28): 1 (2%) N (%); ALS-related TEAE: Dehydration (50 mg, through Week 28): 0 N (%); ALS-related TEAE: Depression (50 mg, through Week 28): 1 (2%) N (%); ALS-related TEAE: Disease progression (50 mg, through Week 28): 2 (4%) N (%); ALS-related TEAE: Dysarthria (50 mg, through Week 28): 4 (8%) N (%); ALS-related TEAE: Dysphagia (50 mg, through Week 28): 5 (10%) N (%); ALS-related TEAE: Dysphasia (50 mg, through Week 28): 1 (2%) N (%); ALS-related TEAE: Dyspnoea (50 mg, through Week 28): 4 (8%) N (%); ALS-related TEAE: Dyspnoea exertional (50 mg, through Week 28): 0 N (%); ALS-related TEAE: Fall (50 mg, through Week 28): 10 (21%) N (%); ALS-related TEAE: Fatigue (50 mg, through Week 28): 3 (6%) N (%); ALS-related TEAE: Gastrointestinal Disorders (50 mg, through Week 28): 16 (33%) N (%); ALS-related TEAE: General Disorders and Administration Site Conditions (50 mg, through Week 28): 8 (17%) N (%); ALS-related TEAE: Increased upper airway secretion (50 mg, through Week 28): 1 (2%) N (%); ALS-related TEAE: Injury, Poisoning and Procedural Complications (50 mg, through Week 28): 10 (21%) N (%); ALS-related TEAE: Investigations (50 mg, through Week 28): 3 (6%) N (%); ALS-related TEAE: Metabolism and Nutrition Disorders (50 mg, through Week 28): 1 (2%) N (%); ALS-related TEAE: Muscle contractions involuntary (50 mg, through Week 28): 3 (6%) N (%); ALS-related TEAE: Muscle spasticity (50 mg, through Week 28): 5 (10%) N (%); ALS-related TEAE: Muscle twitching (50 mg, through Week 28): 1 (2%) N (%); ALS-related TEAE: Muscular weakness (50 mg, through Week 28): 12 (25%) N (%); ALS-related TEAE: Musculoskeletal and Connective Tissue Disorders (50 mg, through Week 28): 19 (40%) N (%); ALS-related TEAE: Musculoskeletal pain (50 mg, through Week 28): 1 (2%) N (%); ALS-related TEAE: Myalgia (50 mg, through Week 28): 2 (4%) N (%); ALS-related TEAE: Neck pain (50 mg, through Week 28): 1 (2%) N (%); ALS-related TEAE: Nervous System Disorders (50 mg, through Week 28): 11 (23%) N (%); ALS-related TEAE: Oedema peripheral (50 mg, through Week 28): 3 (6%) N (%); ALS-related TEAE: Pain in extremity (50 mg, through Week 28): 2 (4%) N (%); ALS-related TEAE: Psychiatric Disorders (50 mg, through Week 28): 2 (4%) N (%); ALS-related TEAE: Respiratory failure (50 mg, through Week 28): 4 (8%) N (%); ALS-related TEAE: Respiratory, Thoracic and Mediastinal Disorders (50 mg, through Week 28): 11 (23%) N (%); ALS-related TEAE: Salivary hypersecretion (50 mg, through Week 28): 8 (17%) N (%); ALS-related TEAE: Vital capacity decreased (50 mg, through Week 28): 2 (4%) N (%); ALS-related TEAE: Weight decreased (50 mg, through Week 28): 0 N (%); Number of TEAEs (50 mg, through Week 28): 277; Number of serious TEAEs (50 mg, through Week 28): 15; Number of serious treatment-related TEAE (50 mg, through Week 28): 1; Number of severe TEAEs (50 mg, through Week 28): 17; Number of treatment-related TEAEs (50 mg, through Week 28): 35; TEAE: Anxiety (50 mg, through Week 28): 2 (4%) N (%); TEAE: Arthralgia (50 mg, through Week 28): 2 (4%) N (%); TEAE: Cardiac Disorders (50 mg, through Week 28): 2 (4%) N (%); TEAE: Constipation (50 mg, through Week 28): 8 (17%) N (%); TEAE: Cough (50 mg, through Week 28): 1 (2%) N (%); TEAE: Dehydration (50 mg, through Week 28): 1 (2%) N (%); TEAE: Depression (50 mg, through Week 28): 6 (13%) N (%); TEAE: Dizziness (50 mg, through Week 28): 0 N (%); TEAE: Dry mouth (50 mg, through Week 28): 2 N (%) and 1 (2%) N (%); TEAE: Dysarthria (50 mg, through Week 28): 4 (8%) N (%); TEAE: Dysphagia (50 mg, through Week 28): 5 (10%) N (%); TEAE: Dyspnoea (50 mg, through Week 28): 5 (10%) N (%); TEAE: Fall (50 mg, through Week 28): 11 (23%) N (%); TEAE: Fatigue (50 mg, through Week 28): 3 (6%) N (%); TEAE: Gastrointestinal Disorders (50 mg, through Week 28): 21 (44%) N (%); TEAE: General Disorders and Administration Site Conditions (50 mg, through Week 28): 14 (29%) N (%); TEAE: Headache (50 mg, through Week 28): 3 (6%) N (%); TEAE: Hyperglycaemia (50 mg, through Week 28): 0 N (%); TEAE: Infections and Infestations (50 mg, through Week 28): 21 (44%) N (%); TEAE: Injury, Poisoning and Procedural Complication (50 mg, through Week 28): 15 (31%) N (%); TEAE: Insomnia (50 mg, through Week 28): 0 N (%); TEAE: Metabolism and Nutrition Disorders (50 mg, through Week 28): 6 (13%) N (%); TEAE: Muscle contractions involuntary (50 mg, through Week 28): 3 (6%) N (%); TEAE: Muscle spasticity (50 mg, through Week 28): 5 (10%) N (%); TEAE: Musculoskeletal and Connective Tissue Disorders (50 mg, through Week 28): 22 (46%) N (%); TEAE: Musculoskeletal pain (50 mg, through Week 28): 2 (4%) N (%); TEAE: Nausea (50 mg, through Week 28): 4 (8%) N (%); TEAE: Neck pain (50 mg, through Week 28): 1 (2%) N (%); TEAE: Nervous System Disorders (50 mg, through Week 28): 16 (33%) N (%); TEAE: Pharyngolaryngeal pain (50 mg, through Week 28): 4 (8%) N (%); TEAE: Pneumonia (50 mg, through Week 28): 3 (6%) N (%); TEAE: Pruritus (50 mg, through Week 28): 3 (6%) N (%); TEAE: Psychiatric Disorders (50 mg, through Week 28): 9 (19%) N (%); TEAE: Rash (50 mg, through Week 28): 2 (4%) N (%); TEAE: Respiratory failure (50 mg, through Week 28): 4 (8%) N (%); TEAE: Respiratory, Thoracic and Mediastinal Disorders (50 mg, through Week 28): 17 (35%) N (%); TEAE: Salivary hypersecretion (50 mg, through Week 28): 8 (17%) N (%); TEAE: Sinusitis (50 mg, through Week 28): 2 (4%) N (%); TEAE: Skin and Subcutaneous Tissue Disorders (50 mg, through Week 28): 14 (29%) N (%); TEAE: Tachycardia (50 mg, through Week 28): 1 (2%) N (%); TEAE: Upper respiratory tract infection (50 mg, through Week 28): 5 (10%) N (%); TEAE: Urinary tract infection (50 mg, through Week 28): 3 (6%) N (%); TEAE: Vomiting (50 mg, through Week 28): 3 (6%) N (%); serious TEAE: Acute myocardial infarction (50 mg, through Week 28): 1 (2%) N (%); serious TEAE: Atrial fibrillation (50 mg, through Week 28): 0 N (%); serious TEAE: Blood and Lymphatic System Disorders (50 mg, through Week 28): 0 N (%); serious TEAE: Cardiac Disorders (50 mg, through Week 28): 1 (2%) N (%); serious TEAE: Cardiac failure congestive (50 mg, through Week 28): 1 (2%) N (%); serious TEAE: Cholecystitis acute (50 mg, through Week 28): 0 N (%); serious TEAE: Concussion (50 mg, through Week 28): 0 N (%); serious TEAE: Disease progression (50 mg, through Week 28): 1 (2%) N (%); serious TEAE: Dyspnoea (50 mg, through Week 28): 1 (2%) N (%); serious TEAE: Fall (50 mg, through Week 28): 0 N (%); serious TEAE: Gastrointestinal Disorders (50 mg, through Week 28): 1 (2%) N (%); serious TEAE: General Disorders and Administration Site Conditions (50 mg, through Week 28): 2 (4%) N (%); serious TEAE: Hepatobiliary Disorders (50 mg, through Week 28): 0 N (%); serious TEAE: Ileus (50 mg, through Week 28): 1 (2%) N (%); serious TEAE: Infections and Infestations (50 mg, through Week 28): 3 (6%) N (%); serious TEAE: Injury, Poisoning and Procedural Complications (50 mg, through Week 28): 0 N (%); serious TEAE: Neutropenia (50 mg, through Week 28): 0 N (%); serious TEAE: Pneumonia (50 mg, through Week 28): 1 (2%) N (%); serious TEAE: Pneumonia aspiration (50 mg, through Week 28): 0 N (%); serious TEAE: Pneumonia bacterial (50 mg, through Week 28): 1 (2%) N (%); serious TEAE: Pulmonary embolism (50 mg, through Week 28): 1 (2%) N (%); serious TEAE: Respiratory distress (50 mg, through Week 28): 1 (2%) N (%); serious TEAE: Respiratory failure (50 mg, through Week 28): 4 (8%) N (%); serious TEAE: Respiratory, Thoracic and Mediastinal Disorders (50 mg, through Week 28): 5 (10%) N (%); serious TEAE: Subdural haematoma (50 mg, through Week 28): 0 N (%); serious TEAE: Sudden death (50 mg, through Week 28): 1 (2%) N (%); serious TEAE: Viral infection (50 mg, through Week 28): 1 (2%) N (%); ≧1 TEAE with an outcome of death (50 mg, through Week 28): 7 N (%) and 7 (15%) N (%); ≧1 serious TEAE (including death) (50 mg, through Week 28): 11 N (%) and 11 (23%) N (%); ≧1 serious treatment-related TEAE (50 mg, through Week 28): 1 (2%) N (%); ≧1 severe TEAE (50 mg, through Week 28): 12 (25%) N (%) and 12 N (%); Number of TEAEs [4]: 333; Number of serious TEAEs [4]: 18; Number of serious treatment-related TEAEs [4]: 1; Number of severe TEAEs [4]: 20; Number of treatment-related TEAEs [4]: 39; Subjects with a TEAE with action taken of study drug discontinued [4]: 2 N (%) and 2 (4%) N (%); subjects with TEAEs with an outcome of death (b230 count) [4]: 7 subjects; ≧1 TEAE with an outcome of death [4]: 7 N (%) and 7 (15%) N (%); ≧1 serious TEAE (including death) [4]: 14 N (%) and 14 (29%) N (%)
